Common to all, as to format: in vivo
Settings in all cases: active ingredient amount 31 g/ha, 14th day after application

Experiment [1] has as its system velvetleaf (Abutilon theophrasti MEDIC.). Kind of experiment: Test Example 2: soil application on the day after sowing, growth inhibition rate on 14th day. In outline: (§1)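 Pre-emergence soil spray on upland soil the day after sowing; wettable powder or emulsifiable concentrate diluted in water at 1,000 L/ha, dosed to prescribed active-ingredient amounts. Visual growth inhibition scored 14 days after application, 0 (untreated-equivalent) to 100 (complete kill).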

Experiment [2] deals with prickly sida (Sida spinosa L.). The description is as above. Summed up:
as §1

Experiment [3] deals with corn (Zea mays L.). Described as above. Summed up:
as §1

For experiment [4], the system named is barnyardgrass (Echinochloa crus-qalli L.). Described as above. Summed up: as §1
Experiment [5] relates to rice (Oryza sativa L.). The description is as above. Summed up: as §1
The test system of experiment [6] is redroot pigweed (Amaranthus retroflexus L.). Described as above. Summed up: as §1
For experiment [7], the system named is wheat (Triticum aestivum L.). Described as above. Summed up:
as §1

Experiment [8] concerns green foxtail (Setaria viridis L.). Described as above. Summed up:
as §1

The subject of experiment [9] is crabgrass (Digitaris sanquinalis L.). The description is as above. Summed up: as §1
The test system of experiment [10] is soybean (Glycine max Merr.). The description is as above. In outline:
as §1

Experiment [11] has as its system wild oat (Avena fatua L.). Kind of experiment: Test Example 1: foliar treatment, growth inhibition rate on 14th day. Summed up:
(§2)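 Plants in upland soil were sprayed on the foliage at early leaf stages (wild oat 0.4–1.2, rice 0.2–2.7, green foxtail 0.5–3.2, soybean primary leaf) with wettable powder or emulsifiable concentrate formulations. Spray volume was 1,000 L/ha water containing 0.1 vol% spreader, at prescribed active-ingredient rates. Growth inhibition (0 = untreated, 100 = complete kill) was scored visually on day 14.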

The test system of experiment [12] is corn (Zea mays L.). Described as above. Summed up:
(§3)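 Visual 0–100% inhibition scoring (100 = complete kill) at 14 days after foliar treatment of soil-grown seedlings at species-specific leaf stages, with the compound sprayed as a wettable powder or emulsifiable concentrate dilution.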

The subject of experiment [13] is barnyardgrass (Echinochloa crus-qalli L.). The experiment is described as above. In outline:
as §3

Experiment [14] concerns rice (Oryza sativa L.). The experiment is described as above. Summed up:
as §2

For experiment [15], the system named is redroot pigweed (Amaranthus retroflexus L.). The experiment is described as above. Summed up:
as §3

Experiment [16] concerns crabgrass (Digitaria sanquinalis L.). The description is as above. In outline:
as §3

The subject of experiment [17] is wheat (Triticum aestivum L.). Described as above. Summed up:
as §3

Experiment [18] concerns italian ryegrass (Lolium multiflorum Lam.). The description is as above. In outline:
as §3

Experiment [19] concerns green foxtail (Setaria viridis L.). The experiment is described as above. Summed up: as §2
Experiment [20] concerns soybean (Glycine max Merr.). Described as above. In outline: as §2

Experimental findings from patent US10870638B2, “Pyridazinone compound or its salt, and herbicide containing it” (ISHIHARA SANGYO KAISHA, LTD., priority 2016, dated 2020) are described below.

For `Cc1ccc(Oc2nc3ccc(F)cc3s2)cc1-c1c(O)c(C)nn(C)c1=O` [Compound 2-155], the “Growth inhibition rate (%) Velvetleaf” value in experiment [1] turned out to be 0%. Moreover, the “Growth inhibition rate (%) Prickly sida” value in [2] stood at 0%. Also, the “Growth inhibition rate (%) Corn” value with corn (Zea mays L.) [3] is on record as 0%; in the experiment on corn (Zea mays L.) [12], 10%. Besides, the “Growth inhibition rate (%) Barnyardgrass” value in [4] was found to be 85%; in [13], 78%. For the same compound, the “Growth inhibition rate (%) Rice” value in the experiment on rice (Oryza sativa L.) [5] was found to be 70%; with rice (Oryza sativa L.) [14], 0%. The “Growth inhibition rate (%) Redroot pigweed” value in [6] and in [15] was 0% in each case. The “Growth inhibition rate (%) Wheat” value in [7] is listed as 0%; in experiment [17], 25%. The “Growth inhibition rate (%) Green foxtail” value in experiment [8] is given as 88%; in [19] it was 60%. For the same compound, the “Growth inhibition rate (%) Crabgrass” value in [9] turned out to be 83%; in experiment [16] it was 40%. For the same compound, the “Growth inhibition rate (%) Soybean” value in experiment [10] and in experiment [20] was 0% each time. Also, the “Growth inhibition rate (%) Wild oat” value in experiment [11] is listed as 0%. The “Growth inhibition rate (%) Italian ryegrass” value in experiment [18] amounted to 10%.

Regarding `Cc1ccc(Oc2nc3ccc(Br)cc3s2)cc1-c1c(O)c(C)nn(C)c1=O` [Compound 2-156], the “Growth inhibition rate (%) Velvetleaf” value in experiment [1] is 0%. For the same compound, in experiment [2], the “Growth inhibition rate (%) Prickly sida” value is 0%. The “Growth inhibition rate (%) Corn” value with corn (Zea mays L.) [3] and in the experiment with corn (Zea mays L.) [12] was 0% each time. The “Growth inhibition rate (%) Barnyardgrass” value came out at 83% in experiment [4] and 98% in experiment [13]. Besides, the results for the “Growth inhibition rate (%) Rice” value with rice (Oryza sativa L.) [5] and in the experiment with rice (Oryza sativa L.) [14] were 15% and 0%, respectively. Further, the “Growth inhibition rate (%) Redroot pigweed” value in experiment [6] and in [15] was 0% each time. In addition, the “Growth inhibition rate (%) Wheat” value in experiment [7] and in experiment [17] was 0% throughout. The “Growth inhibition rate (%) Green foxtail” value in [8] and in experiment [19] was 98% in each case. Besides, the “Growth inhibition rate (%) Crabgrass” value in experiment [9] is 75%; in experiment [16], 93%. Besides, the “Growth inhibition rate (%) Soybean” value in [10] and in experiment [20] was 0% in each case. The “Growth inhibition rate (%) Wild oat” value in experiment [11] is recorded as 10%. Further, the “Growth inhibition rate (%) Italian ryegrass” value in [18] is reported as 30%.

Take `CC(=O)Oc1c(C)nn(C)c(=O)c1-c1cc(Oc2nc3ccc(Br)cc3s2)ccc1C` [Compound 2-158]: the “Growth inhibition rate (%) Velvetleaf” value in experiment [1] came out at 0%. Also, the “Growth inhibition rate (%) Prickly sida” value in [2] is recorded as 0%. The figures for the “Growth inhibition rate (%) Corn” value with corn (Zea mays L.) [3] and in the experiment with corn (Zea mays L.) [12] were 10% and 0%, respectively. In addition, the “Growth inhibition rate (%) Barnyardgrass” value was found to be 80% in [4] and 100% in experiment [13]. The “Growth inhibition rate (%) Rice” value was determined as 0% in the experiment on rice (Oryza sativa L.) [5] and 60% in the experiment on rice (Oryza sativa L.) [14]. Besides, the “Growth inhibition rate (%) Redroot pigweed” value in experiment [6] and in experiment [15] was 0% in each case. Besides, the “Growth inhibition rate (%) Wheat” value in [7] is 0%; in [17] it was 93%. Further, the results for the “Growth inhibition rate (%) Green foxtail” value in [8] and in [19] were 95% and 98%, respectively. Besides, the “Growth inhibition rate (%) Crabgrass” value came to 70% in [9] and 93% in experiment [16]. In addition, the “Growth inhibition rate (%) Soybean” value in [10] and in experiment [20] was 0% each time. The “Growth inhibition rate (%) Wild oat” value in [11] stood at 65%. Further, in experiment [18], the “Growth inhibition rate (%) Italian ryegrass” value turned out to be 65%.

As to `CCc1ccc(Oc2nc3ccc(Cl)cc3o2)cc1-c1c(OC(C)=O)c(C)nn(C)c1=O` [Compound 2-159], the “Growth inhibition rate (%) Velvetleaf” value in [1] is recorded as 0%. Besides, the “Growth inhibition rate (%) Prickly sida” value in experiment [2] is given as 0%. For the same compound, the “Growth inhibition rate (%) Corn” value with corn (Zea mays L.) [3] was determined as 0%; with corn (Zea mays L.) [12], 100%. Further, the “Growth inhibition rate (%) Barnyardgrass” value in experiment [4] and in experiment [13] was 100% in each case. Also, the “Growth inhibition rate (%) Rice” value in the experiment on rice (Oryza sativa L.) [5] is 0%; in the experiment with rice (Oryza sativa L.) [14], 100%. The “Growth inhibition rate (%) Redroot pigweed” value in experiment [6] and in [15] was 0% in each case. The “Growth inhibition rate (%) Wheat” value in experiment [7] came to 0%; in experiment [17], 99%. The “Growth inhibition rate (%) Green foxtail” value in experiment [8] is 99%; in experiment [19], 100%. Moreover, the “Growth inhibition rate (%) Crabgrass” value in [9] is reported as 98%; in experiment [16], 100%. Also, the “Growth inhibition rate (%) Soybean” value in [10] was determined as 0%; in experiment [20], 35%. Moreover, in [11], the “Growth inhibition rate (%) Wild oat” value is 100%. The “Growth inhibition rate (%) Italian ryegrass” value in [18] came to 100%.

Take `CCc1ccc(Oc2nc3ccc(Cl)cc3o2)cc1-c1c(OC(C)=O)cnn(C)c1=O` [Compound 2-160]: the “Growth inhibition rate (%) Velvetleaf” value in experiment [1] is 0%. Also, the “Growth inhibition rate (%) Prickly sida” value in experiment [2] is reported as 50%. Further, the “Growth inhibition rate (%) Corn” value in the experiment with corn (Zea mays L.) [3] was 0%; in the experiment with corn (Zea mays L.) [12], 100%. Besides, the “Growth inhibition rate (%) Barnyardgrass” value in [4] and in experiment [13] was 100% throughout. Also, the “Growth inhibition rate (%) Rice” value turned out to be 0% in the experiment on rice (Oryza sativa L.) [5] and 100% in the experiment on rice (Oryza sativa L.) [14]. Further, the “Growth inhibition rate (%) Redroot pigweed” value was found to be 95% in [6] and 0% in [15]. For the same compound, the “Growth inhibition rate (%) Wheat” value in experiment [7] is reported as 0%; in experiment [17], 99%. The “Growth inhibition rate (%) Green foxtail” value in experiment [8] and in [19] was 100% in each case. Moreover, the entries for the “Growth inhibition rate (%) Crabgrass” value in experiment [9] and in experiment [16] were 99% and 100%, respectively. In addition, the “Growth inhibition rate (%) Soybean” value in experiment [10] was 0%; in experiment [20], 30%. Besides, in experiment [11], the “Growth inhibition rate (%) Wild oat” value was found to be 100%. Moreover, in experiment [18], the “Growth inhibition rate (%) Italian ryegrass” value was 100%.

Regarding `CCc1ccc(Oc2nc3cc(Cl)ccc3o2)cc1-c1c(O)c(C)nn(C)c1=O` [Compound 2-161], in experiment [1], the “Growth inhibition rate (%) Velvetleaf” value turned out to be 0%. In [2], the “Growth inhibition rate (%) Prickly sida” value is on record as 0%. The “Growth inhibition rate (%) Corn” value is listed as 0% with corn (Zea mays L.) [3] and 90% in the experiment with corn (Zea mays L.) [12]. In addition, the “Growth inhibition rate (%) Barnyardgrass” value in experiment [4] is listed as 98%; in experiment [13], 100%. Further, the entries for the “Growth inhibition rate (%) Rice” value in the experiment with rice (Oryza sativa L.) [5] and with rice (Oryza sativa L.) [14] were 0% and 99%, respectively. Also, the figures for the “Growth inhibition rate (%) Redroot pigweed” value in experiment [6] and in [15] were 0% and 40%, respectively. For the same compound, the “Growth inhibition rate (%) Wheat” value in [7] is 0%; in experiment [17], 85%. Further, the “Growth inhibition rate (%) Green foxtail” value in experiment [8] was 0%; in experiment [19] it was 100%. For the same compound, the “Growth inhibition rate (%) Crabgrass” value in [9] stood at 0%; in [16], 83%. The “Growth inhibition rate (%) Soybean” value in experiment [10] and in experiment [20] was 0% throughout. In addition, in [11], the “Growth inhibition rate (%) Wild oat” value is 99%. Besides, in [18], the “Growth inhibition rate (%) Italian ryegrass” value turned out to be 99%.

Turning to `Cc1ccc(Oc2nc3ccc(Cl)cc3o2)cc1-c1c(O)cnn(C)c1=O` [Compound 2-163], the “Growth inhibition rate (%) Velvetleaf” value in [1] came out at 0%. The “Growth inhibition rate (%) Prickly sida” value in [2] was determined as 0%. Further, the “Growth inhibition rate (%) Corn” value is reported as 15% in the experiment with corn (Zea mays L.) [3] and 80% in the experiment on corn (Zea mays L.) [12]. For the same compound, the “Growth inhibition rate (%) Barnyardgrass” value in experiment [4] is given as 98%; in experiment [13], 100%. Also, the “Growth inhibition rate (%) Rice” value in the experiment on rice (Oryza sativa L.) [5] is recorded as 20%; in the experiment with rice (Oryza sativa L.) [14], 35%. For the same compound, the “Growth inhibition rate (%) Redroot pigweed” value in experiment [6] and in experiment [15] was 0% in each case. The “Growth inhibition rate (%) Wheat” value is 20% in experiment [7] and 10% in [17]. Moreover, the “Growth inhibition rate (%) Green foxtail” value is 99% in experiment [8] and 100% in [19]. The “Growth inhibition rate (%) Crabgrass” value in experiment [9] turned out to be 98%; in experiment [16], 95%. The “Growth inhibition rate (%) Soybean” value in experiment [10] is recorded as 0%; in experiment [20] it was 35%. The “Growth inhibition rate (%) Wild oat” value in experiment [11] is recorded as 75%. Further, in experiment [18], the “Growth inhibition rate (%) Italian ryegrass” value is recorded as 88%.
